Reference: patent US20080131867A1, “Method for Determining the Effectiveness of a Treatment for Preeclampsia” (priority 2006, published 2008)

Assays:
[1] = test system: PP13 release from cultured chorionic villi; test: PP13 release from cultured chorionic villi of GW 9-10 (48 hr culture, ELISA); type: cell-based, human; details: for PP13 (pg/ml) release: 48 hr
Description: From left to right, the explants are shown at transfer (6 hours) and after 36 hr in culture. Cultures are grown in conditioned medium. After 48 hr in culture, the supernatant is collected, centrifuged and the […] is diluted in PBS and checked for the concentration of PP13 by sandwich ELISA using PP13 standards to calibrate the reaction OD to PP13 concentration. The PP13 level may be normalized to the gestational age according to the linear regression of the total points and to the protein level of the explant; […] The placenta cells/explants were cultured for 48 hr and PP13 was measured in the culture medium by ELISA (in the same manner as described in FIG. 1).

[2] = test system: PP13 release from placental (villous) explants; test: PP13 release from placental (villous) explants cultured 48 hours (FIGS. 7-11); type: cell-based, human
Description: The tissue of each woman was divided into 16 different portions, exposed each to diversified conditions and cultured for 48 hours;
The following results were obtained with placental (villous) explants from 16 cases of normal women, 12 cases of preeclampsia and 3 cases of HELLP women, which were cultured in DMEM/F12 for 48 hours at 6% or 20% O2. Conditioned media was collected after culture and tested for total protein and PP13. PP13 release was related to total protein.
The explants tested in Example 6 were retested using, in addition to the two oxygen levels, two different levels of magnesium, 0.7 mM and 1.4 mM.
Note that the latter combination also affected the HELLP cases. […]

PP13 [3] = test: Allocation of high-risk women to serum PP13 quartiles after low dose aspirin; type: in vivo, human; details: for Frequency of 1st quartile cases / Frequency of 2nd quartile cases / Frequency of 3rd quartile cases: high-risk women
Description: (§1) Unless otherwise indicated, in all experiments, PP13 was measured (blinded to pregnancy outcome) in maternal venous serum by solid-phase sandwich ELISA assay. The PP13 level was calibrated according to standard curves prepared from calibrated standards of recombinant PP13. Concentrations are given in pg PP13/ml serum.
First trimester PP13 could serve as a measure to assess the risk for a later development of preeclampsia. According to FIG. 2 and Table 1, in the first trimester, the majority of the women who will go on to develop preeclampsia have very low levels of PP13 while most women who will have a normal outcome have higher PP13 values. In one study summarized in Table 2 and FIG. 3, the PP13 level was measured at 8 weeks of gestation from 50 cases who went on to develop preeclampsia and in 290 cases with normal outcome. The method of multiples of the gestation-specific median (MoM) was used, and at MoM cutoffs of 0.45, the false positive rate was 10% and the sensitivity 87%. This means that 43 out of 50 preeclampsia cases and 29 out of 290 normal were identified as being at high risk. Thus, while the risk for PP13 in the population is 5%, in the group with PP13 below 0.45, the frequency of preeclampsia was 59% (more than 10 times above the frequency in the population not tested).
Sensitivity and specificity were calculated from the receiver operating characteristic (ROC) analysis based on the indicated MoM cutoffs of 0.45. Sensitivity value is provided in Table 2 in percentile for 10% false positive rate. The odds ratio for developing the pathology was determined by two methods of calculations:
1) modeling, that calculate the Odds ratio as already described above after taking into consideration the prevalence of the pathology in the population, and
2) the quartile assessment procedure, of calculating of the odds ratio for the development of preeclampsia based on the comparison of PP13 in the lowest quartile (25%) versus PP13 in the third quartile (75th percent).
(§2) If in the period specified above a medication is used, it is anticipated that it will bring a woman's PP13 level to the 2nd or 3rd or even the 4th quartile, corresponding to their reduced likelihood of developing preeclampsia. In the example described in Table 2, women with elevated risk to develop preeclampsia were orally treated from GW8 with a dose of […] aspirin (“low dose aspirin”) for either 2 or 3 weeks. […] Accordingly, women who were treated were anticipated to have lower risk to develop preeclampsia and their outcome should also be improved.
(§3) In the study shown in Table 2, of 150 women tested as being at high risk in the 8th week, 50 were not treated, 50 were treated with aspirin for two weeks and 50 were treated for 3 weeks. […] The calculation of their anticipated risk was reduced accordingly.
Sensitivity in percentile values are shown when the specificity was fixed to 90% (95% CI: 86%-93%), corresponding to having […] cases of false positives (10%).

[4] = test system: women with elevated risk to develop preeclampsia; test: Delivery outcome of high-risk women treated with low dose aspirin; type: in vivo, human; details: for Outcome: Normal (number of women) / Outcome: Preeclampsia (number of women): 50 treated
Description: as §2, §3

[5] = test system: PP13 release from placenta explants; test: Therapeutic effectiveness on PP13 release from standardized placenta explants in presence of patient serum (indirect method); type: cell-based, human
Description: Scenario 1: Simple Direct Tailoring with a Diversity of Drugs. • We have standardized culture conditions for first trimester explants or explants obtained after delivery. • Explants could be the ones made of patients after delivery or those obtained by Chorionic villi sampling (CVS) at gestational weeks 10-12 or other placenta biopsies as the case may be. • Standardization means defined median viability index, protein content in the explant, total protein released to the medium, PP13 content in the explant and PP13 release from the explant, among others. • Drug effect in-vitro is the effect of drug applied to the culture medium on PP13 release from the placenta explant after 24 hr to 7 days. The effect is compared to the baseline release as measured without the drug. • The Therapeutic Index is thus the in-vitro relative effectiveness of the drug when applied to explants as measured by the difference between PP13 release with (PP13D1) and without (PP130) the drug by the equation: (PP130−PP13D1)/PP130, after normalizing to viability, protein content etc as described above, given all other parameters are the same. • It is important to note that in the first trimester (gestational weeks 6-13) PP13 in diseased patient is lower than Normal. Thus the therapeutic index is to return PP13 release is calculated as drugs that elevate PP13 release. In the third trimester (gestational week 26 and above), PP13 is higher in preeclamptic patients than normal. Thus the therapeutic index is decreasing PP13 release back to Normal. • According to the in-vitro therapeutic index one drug or a drug combinations are selected for the in-vivo interventional medication treatment. • Follow up: after selecting the drug to be administrating to the patient, bi-weekly blood testing follow up is recommended to be carried out by measuring the PP13 in the blood and calculating
If so, drugs that appears beneficial to standardized culture explants wouldn't work when applied together with the patient samples. It can be seen that the serum from the patient at high risk for preeclampsia caused serious inhibition of many of the types of treatment.

PP13 [6] = test: Serum PP13 values and 1st-to-2nd trimester slope in women treated with vitamin E (FIG. 4); type: in vivo, human
Description: as §1
The slope may be calculated as follows:
Slope=(PP13(2nd trimester)−PP13(1st trimester)/GW(2nd trimester)−GW(1st trimester)).
Normal vs. preeclampsia slopes are shown in FIG. 4, and the cutoff between normal and preeclampsia to reach 80% sensitivity is a slope of 3.5. The slope helps to further verify the risk for preeclampsia.
If after establishing the risk by two tests the women at high risk are treated daily by administering the anti-oxidant vitamin E, the treated women have a lower slope (FIG. 4). From the relatively large confidence level one can see that not all women were affected in the same way. Thus, the approach can be further used to enable one to see how the slope can be reduced by medications and its correlation to the reduced risk to develop the pathology, thereby considering discontinuing the treatment, elevating the drug level or selecting a different treatment for individual patients. The combined and contingent approaches indicate that multiple testing is necessary only for women at risk whereas low risk patients may avoid repeated testing.

[7] = applied with serum from a Normal Patient
[8] = applied with serum from a Patient at high risk for preeclampsia

O=O [Oxygen, oxygen]
Increase of PP13 release under 20% oxygen compared to 6% oxygen ([1]; 3 high risk women, no vitamin C): ~2 factor
PP13 (pg/ml) release ([1]; Case 1, normal risk, 20% oxygen (hyperoxia), no vitamin C): 14,250 pg/ml
PP13 (pg/ml) release ([1]; Case 2, normal risk, 20% oxygen (hyperoxia), no vitamin C): 15,500 pg/ml
PP13 (pg/ml) release ([1]; Case 3, high-risk (preeclampsia), 20% oxygen (hyperoxia), no vitamin C): 5,000 pg/ml
PP13 (pg/ml) release ([1]; Case 3, high-risk (preeclampsia), 20% oxygen (hyperoxia), no vitamin C, listed as oxygen): 5000 pg/mL
PP13 (pg/ml) release ([1]; Case 4, high-risk (preeclampsia), 20% oxygen (hyperoxia), no vitamin C): 4,300 pg/ml
PP13 (pg/ml) release ([1]; Case 5, high-risk (preeclampsia), 20% oxygen (hyperoxia), no vitamin C): 7,900 pg/ml
Effect on PP13 release ([2]; explants from HELLP cases, 20% vs 6% oxygen, 48 hours, listed as O2): reduced by 20% O2 to below the normal level
Effect on PP13 release ([2]; explants from HELLP cases, 20% vs 6% oxygen, 48 hours, listed as hyperoxia): almost complete halt in PP13 release
Effect on PP13 release ([2]; explants from normal women, 20% vs 6% oxygen, 48 hours): no effect
Effect on PP13 release ([2]; explants from normal women, 20% vs 6% oxygen, 48 hours, listed as hyperoxia): remained at the same level
Effect on PP13 release ([2]; explants from preeclampsia women, 20% vs 6% oxygen, 48 hours): decreased significantly
Effect on PP13 release ([2]; explants from preeclampsia women, 20% vs 6% oxygen, 48 hours, listed as hyperoxia): significantly less PP13 release

CC(=O)Oc1ccccc1C(=O)O [Aspirin, salicylic acid (aspirin)]
Odds ratio (by modeling) for developing preeclampsia (PP13 [3]; 14 days aspirin): 5.9
Odds ratio (by quartiles) for developing preeclampsia (PP13 [3]; 14 days aspirin): 5.6
Frequency of 1st quartile cases (PP13 [3]; 14 days aspirin): 20/50
Frequency of 2nd quartile cases (PP13 [3]; 14 days aspirin): 24/45
Frequency of 3rd quartile cases (PP13 [3]; 14 days aspirin): 5/50
Odds ratio (by modeling) for developing preeclampsia (PP13 [3]; 21 days aspirin): 3.3
Odds ratio (by quartiles) for developing preeclampsia (PP13 [3]; 21 days aspirin): 3.2
Frequency of 1st quartile cases (PP13 [3]; 21 days aspirin): 14/50
Frequency of 2nd quartile cases (PP13 [3]; 21 days aspirin): 30/50
Frequency of 3rd quartile cases (PP13 [3]; 21 days aspirin): 5/50
Numbers of patients in the 2nd and 3rd PP13 quartiles compared to the first quartile (PP13 [3]; aspirin for 2 or 3 weeks): elevated significantly
Outcome: Normal (number of women) ([4]; 14 days aspirin): 26 Normal
Outcome: Preeclampsia (number of women) ([4]; 14 days aspirin): 24 Preeclampsia
Outcome: Normal (number of women) ([4]; 21 days aspirin): 33 Normal
Outcome: Preeclampsia (number of women) ([4]; 21 days aspirin): 18 Preeclampsia
Number of preeclampsia cases, treated vs. untreated groups ([4]; aspirin for 2 or 3 weeks): significantly lower
Therapeutic Effectiveness on PP13 release from placenta explants [5, 7]: 74%
Therapeutic Effectiveness on PP13 release from placenta explants [5, 8]: 40%

vitamin E
Effect on PP13 (PP13 [6]; 16-20 weeks, vitamin E): no significant effect
Effect on PP13 level/release (PP13 [6]; cases of preeclampsia, 6-10 weeks, early application of vitamin E): doubles PP13 release towards the normal level
Effect on PP13 release (PP13 [6]; normal patients, 6-10 weeks, vitamin E): without affecting PP13 release
Effect on PP13 release (PP13 [6]; preeclamptic women, 24-28 weeks, vitamin E): reduces PP13 release back to the normal level
PP13 slope (1st-to-2nd trimester) (PP13 [6]; women at high risk treated daily with vitamin E): lower slope
Therapeutic Effectiveness on PP13 release from placenta explants [5, 7]: 30%
Therapeutic Effectiveness on PP13 release from placenta explants [5, 8]: 0%

aprotinin
Effect on PP13 release ([2]; HELLP explants, normoxia and high Mg (FIG. 11B)): almost back to normal

O=C1O[C@H]([C@@H](O)CO)C(O)=C1O [Vitamin C, vitamin C]
Increase of PP13 release with vitamin C vs. without ([1]; 3 high risk women, 6% oxygen, 48 hours incubation): 3-4 times
PP13 (pg/ml) release ([1]; Case 1, normal risk, 6% oxygen, with vitamin C): 14,300 pg/ml
PP13 (pg/ml) release ([1]; Case 1, normal risk, 20% oxygen, with vitamin C): 14990 pg/mL
PP13 (pg/ml) release ([1]; Case 2, normal risk, 6% oxygen, with vitamin C): 15,390 pg/ml
PP13 (pg/ml) release ([1]; Case 2, normal risk, 20% oxygen, with vitamin C): 15,300 pg/ml
PP13 (pg/ml) release ([1]; Case 3, high-risk (preeclampsia), 6% oxygen, with vitamin C): 12,030 pg/ml
PP13 (pg/ml) release ([1]; Case 3, high-risk (preeclampsia), 20% oxygen, with vitamin C): 5,100 pg/ml
PP13 (pg/ml) release ([1]; Case 4, high-risk (preeclampsia), 6% oxygen, with vitamin C): 9,230 pg/ml
PP13 (pg/ml) release ([1]; Case 4, high-risk (preeclampsia), 20% oxygen, with vitamin C): 4,421 pg/ml
PP13 (pg/ml) release ([1]; Case 5, high-risk (preeclampsia), 6% oxygen, with vitamin C): 15760 pg/mL
PP13 (pg/ml) release ([1]; Case 5, high-risk (preeclampsia), 6% oxygen, with vitamin C, listed as vitamin C): 15,790 pg/ml
PP13 (pg/ml) release ([1]; Case 5, high-risk (preeclampsia), 20% oxygen, with vitamin C): 8,100 pg/ml
Additional effect of vitamin C on PP13 release under 20% oxygen ([1]; high risk women, 20% oxygen (hyperoxia)): no additional effect

heparin
Effect on PP13 release ([2]; hyperoxia and normal Mg (FIG. 11C)): almost back to normal
Therapeutic Effectiveness on PP13 release from placenta explants [5, 7]: 56%
Therapeutic Effectiveness on PP13 release from placenta explants [5, 8]: 20%

[Cl-].[Cl-].[Mg+2] [Magnesium, MgCl2]
Effect on PP13 release ([2]; HELLP explants, hyperoxia (20%), increase in Mg (1.4 mM)): elevated release of PP13
Effect on PP13 release ([2]; HELLP explants, normoxia (6%), elevated Mg (1.4 mM)): elevated release of PP13
Effect on PP13 release ([2]; explants from normal pregnant women, elevated oxygen (20%) and MgCl2 (1.4 mM)): not affected
Effect on PP13 release ([2]; preeclamptic explants, magnesium 1.4 mM in 6% oxygen): not in 6% oxygen
Effect on PP13 release ([2]; preeclamptic explants, magnesium 1.4 mM in 20% oxygen): brought back to the normal level
Therapeutic Effectiveness on PP13 release from placenta explants [5, 7]: 50%
Therapeutic Effectiveness on PP13 release from placenta explants [5, 8]: 20%
